Measurements: ChEMBL document CHEMBL1153245, “A profile of the in vitro anti-tumor activity of imidazolium-based ionic liquids” (2010)

Assays:
Format in all cases: functional
HCT-15 = test: Anticancer activity against human HCT15 cells assessed cell growth at 10 uM after 48 hrs by sulforhodamine B assay relative to control
SF-539 = test: Anticancer activity against human SF539 cells assessed cell growth at 10 uM after 48 hrs by sulforhodamine B assay relative to control
OVCAR-8 = test: Anticancer activity against human OVCAR8 cells assessed cell growth at 10 uM after 48 hrs by sulforhodamine B assay relative to control
SK-MEL-2 = test: Anticancer activity against human SK-MEL-2 cells assessed cell growth at 10 uM after 48 hrs by sulforhodamine B assay relative to control
NCI-H23 = test: Anticancer activity against human NCI-H23 cells assessed cell growth at 10 uM after 48 hrs by sulforhodamine B assay relative to control
SNB-19 = test: Anticancer activity against human SNB19 cells assessed cell growth at 10 uM after 48 hrs by sulforhodamine B assay relative to control
COLO 205 = test: Anticancer activity against human COLO205 cells assessed cell growth at 10 uM after 48 hrs by sulforhodamine B assay relative to control
MDA-MB-468 = test: Anticancer activity against human MDA-MB-468 cells assessed cell growth at 10 uM after 48 hrs by sulforhodamine B assay relative to control
OVCAR-4 = test: Anticancer activity against human OVCAR4 cells assessed cell growth at 10 uM after 48 hrs by sulforhodamine B assay relative to control
U-251 = test: Anticancer activity against human U251 cells assessed cell growth at 10 uM after 48 hrs by sulforhodamine B assay relative to control
SNB-75 = test: Anticancer activity against human SNB75 cells assessed cell growth at 10 uM after 48 hrs by sulforhodamine B assay relative to control
A498 = test: Anticancer activity against human A498 cells assessed cell growth at 10 uM after 48 hrs by sulforhodamine B assay relative to control
CAKI-1 = test: Anticancer activity against human Caki1 cells assessed cell growth at 10 uM after 48 hrs by sulforhodamine B assay relative to control
UACC-62 = test: Anticancer activity against human UACC62 cells assessed cell growth at 10 uM after 48 hrs by sulforhodamine B assay relative to control
PC-3 = test: Anticancer activity against human PC3 cells assessed cell growth at 10 uM after 48 hrs by sulforhodamine B assay relative to control
SK-OV-3 = test: Anticancer activity against human SKOV3 cells assessed cell growth at 10 uM after 48 hrs by sulforhodamine B assay relative to control
[1] = Anticancer activity against human RPMI8266 cells assessed cell growth at 10 uM after 48 hrs by sulforhodamine B assay relative to control
M14 = test: Anticancer activity against human M14 cells assessed cell growth at 10 uM after 48 hrs by sulforhodamine B assay relative to control
NCI-H322M = test: Anticancer activity against human NCI-H322M cells assessed cell growth at 10 uM after 48 hrs by sulforhodamine B assay relative to control
MDA-MB-231 = test: Anticancer activity against human MDA-MB-231 cells assessed cell growth at 10 uM after 48 hrs by sulforhodamine B assay relative to control
LOX IMVI = test: Anticancer activity against human LOXIMVI cells assessed cell growth at 10 uM after 48 hrs by sulforhodamine B assay relative to control
SF-295 = test: Anticancer activity against human SF295 cells assessed cell growth at 10 uM after 48 hrs by sulforhodamine B assay relative to control
UACC-257 = test: Anticancer activity against human UACC257 cells assessed cell growth at 10 uM after 48 hrs by sulforhodamine B assay relative to control
HOP-92 = test: Anticancer activity against human HOP92 cells assessed cell growth at 10 uM after 48 hrs by sulforhodamine B assay relative to control
HOP-62 = test: Anticancer activity against human HOP62 cells assessed cell growth at 10 uM after 48 hrs by sulforhodamine B assay relative to control
HCT-116 = test: Anticancer activity against human HCT116 cells assessed cell growth at 10 uM after 48 hrs by sulforhodamine B assay relative to control
IGROV-1 = test: Anticancer activity against human IGROV1 cells assessed cell growth at 10 uM after 48 hrs by sulforhodamine B assay relative to control
HT-29 = test: Anticancer activity against human HT-29 cells assessed cell growth at 10 uM after 48 hrs by sulforhodamine B assay relative to control
HCC 2998 = test: Anticancer activity against human HCC2998 cells assessed cell growth at 10 uM after 48 hrs by sulforhodamine B assay relative to control
T47D = test: Anticancer activity against human T47D cells assessed cell growth at 10 uM after 48 hrs by sulforhodamine B assay relative to control
OVCAR-3 = test: Anticancer activity against human OVCAR-3 cells assessed cell growth at 10 uM after 48 hrs by sulforhodamine B assay relative to control
SK-MEL-28 = test: Anticancer activity against human SK-MEL-28 cells assessed cell growth at 10 uM after 48 hrs by sulforhodamine B assay relative to control
UO-31 = test: Anticancer activity against human UO31 cells assessed cell growth at 10 uM after 48 hrs by sulforhodamine B assay relative to control
NCI-H460 = test: Anticancer activity against human NCI-H460 cells assessed cell growth at 10 uM after 48 hrs by sulforhodamine B assay relative to control
TK-10 = test: Anticancer activity against human TK10 cells assessed cell growth at 10 uM after 48 hrs by sulforhodamine B assay relative to control
SN12C = test: Anticancer activity against human SN12C cells assessed cell growth at 10 uM after 48 hrs by sulforhodamine B assay relative to control
NCI/ADR-RES = test: Anticancer activity against human NCI/ADR-RES cells assessed cell growth at 10 uM after 48 hrs by sulforhodamine B assay relative to control
A549 = test: Anticancer activity against human A549 cells assessed cell growth at 10 uM after 48 hrs by sulforhodamine B assay relative to control
NCI-H522 = test: Anticancer activity against human NCI-H522 cells assessed cell growth at 10 uM after 48 hrs by sulforhodamine B assay relative to control
KM12 = test: Anticancer activity against human KM12 cells assessed cell growth at 10 uM after 48 hrs by sulforhodamine B assay relative to control
SK-MEL-5 = test: Anticancer activity against human SK-MEL-5 cells assessed cell growth at 10 uM after 48 hrs by sulforhodamine B assay relative to control
BT-549 = test: Anticancer activity against human BT549 cells assessed cell growth at 10 uM after 48 hrs by sulforhodamine B assay relative to control
OVCAR-5 = test: Anticancer activity against human OVCAR5 cells assessed cell growth at 10 uM after 48 hrs by sulforhodamine B assay relative to control

Work on `Cn1cc[n+](CCO)c1.O=S(=O)([N-]S(=O)(=O)C(F)(F)F)C(F)(F)F` yielded an Activity (HCT-15) of 90.93%, an Activity (SF-539) of 99.95% and an Activity (OVCAR-8) of 93.89%. It also gave an Activity (SK-MEL-2) of 97.37%, an Activity (NCI-H23) of 93.17% and an Activity (SNB-19) of 93.36%. For the same compound, the Activity (COLO 205) was 132.21%, the Activity (MDA-MB-468) was 108.29% and the Activity (OVCAR-4) was 100.13%. For the same compound, the Activity (U-251) was 91.58%, the Activity (SNB-75) was 79.94% and the Activity (A498) was 79.55%. The Activity (CAKI-1) was 90.82%, the Activity (UACC-62) was 100.11% and the Activity (PC-3) was 86.93%. For the same compound, the Activity (SK-OV-3) was 102.56%, the Activity [1] was 72.12% and the Activity (M14) was 102.65%. It also gave an Activity (NCI-H322M) of 94.56%, an Activity (MDA-MB-231) of 104.59% and an Activity (LOX IMVI) of 90.65%. For the same compound, the Activity (SF-295) was 128.56%, the Activity (UACC-257) was 93.35% and the Activity (HOP-92) was 74.53%. The Activity (HOP-62) was 90.22%, the Activity (HCT-116) was 100.02% and the Activity (IGROV-1) was 89%. The Activity (HT-29) was 112.28%, the Activity (HCC 2998) was 94.14% and the Activity (T47D) was 100.5%. For the same compound, the Activity (OVCAR-3) was 120.42%, the Activity (SK-MEL-28) was 125.37% and the Activity (UO-31) was 80.89%. It also gave an Activity (NCI-H460) of 114.83%, an Activity (TK-10) of 125.47% and an Activity (SN12C) of 96.7%. The Activity (NCI/ADR-RES) was 92.39%, the Activity (A549) was 99.55% and the Activity (NCI-H522) was 90.32%. It also gave an Activity (KM12) of 107.33%, an Activity (SK-MEL-5) of 100.98% and an Activity (BT-549) of 114.11%.
Compound `CCCCCCCCCCCC[n+]1ccn(C)c1.F[B-](F)(F)F` has an Activity (HCT-15) of 82.38%, an Activity (SF-539) of 35.07% and an Activity (OVCAR-8) of 13.12%. It also gave an Activity (SK-MEL-2) of 18.52%, an Activity (NCI-H23) of 23.04% and an Activity (SNB-19) of 39.2%. For the same compound, the Activity (COLO 205) was 15.15%, the Activity (MDA-MB-468) was -43.37% and the Activity (OVCAR-4) was 12.68%. For the same compound, the Activity (U-251) was 36.74%, the Activity (SNB-75) was 3.39% and the Activity (A498) was 35.81%. The Activity (CAKI-1) was 30.59%, the Activity (UACC-62) was 40.33% and the Activity (PC-3) was 74.38%. The Activity (SK-OV-3) was 47.29%, the Activity [1] was 130.35% and the Activity (M14) was 24.71%. The Activity (NCI-H322M) was 67.4%, the Activity (MDA-MB-231) was 26.48% and the Activity (LOX IMVI) was 35.51%. It also gave an Activity (OVCAR-5) of 48.72%, an Activity (SF-295) of 34.1% and an Activity (UACC-257) of -7.74%. The Activity (HOP-92) was 46.45%, the Activity (HOP-62) was 28.7% and the Activity (HCT-116) was 16.24%. For the same compound, the Activity (IGROV-1) was 1.02%, the Activity (HT-29) was 24.82% and the Activity (HCC 2998) was 28.68%. It also gave an Activity (T47D) of 11.08%, an Activity (OVCAR-3) of 55.26% and an Activity (SK-MEL-28) of 62.65%. It also gave an Activity (UO-31) of 68.16%, an Activity (NCI-H460) of 23.03% and an Activity (TK-10) of 24.24%. It also gave an Activity (SN12C) of 21.24%, an Activity (NCI/ADR-RES) of 76.53% and an Activity (A549) of 37.89%. The Activity (NCI-H522) was -10.37%, the Activity (KM12) was 21.76% and the Activity (SK-MEL-5) was -19.73%. The Activity (BT-549) was 1.51%.
`Cn1cc[n+](Cc2ccccc2)c1.F[P-](F)(F)(F)(F)F` showed an Activity (HCT-15) of 106.14%, an Activity (SF-539) of 106.41% and an Activity (OVCAR-8) of 108.71%. The Activity (SK-MEL-2) was 108.02%, the Activity (NCI-H23) was 70.66% and the Activity (SNB-19) was 100.88%. For the same compound, the Activity (COLO 205) was 123.33%, the Activity (MDA-MB-468) was 101.43% and the Activity (OVCAR-4) was 107.15%. For the same compound, the Activity (U-251) was 101.41%, the Activity (SNB-75) was 83.18% and the Activity (A498) was 112.56%. The Activity (CAKI-1) was 83.75%, the Activity (UACC-62) was 101.92% and the Activity (PC-3) was 98.08%. For the same compound, the Activity (SK-OV-3) was 109.97%, the Activity [1] was 131.72% and the Activity (M14) was 114.25%. For the same compound, the Activity (NCI-H322M) was 116.31%, the Activity (MDA-MB-231) was 113.82% and the Activity (LOX IMVI) was 100.88%. It also gave an Activity (OVCAR-5) of 101.34%, an Activity (SF-295) of 115.95% and an Activity (UACC-257) of 106.42%. It also gave an Activity (HOP-92) of 109.04%, an Activity (HOP-62) of 27.45% and an Activity (HCT-116) of 107.98%. For the same compound, the Activity (IGROV-1) was 95.43%, the Activity (HT-29) was 96.77% and the Activity (T47D) was 90.49%. The Activity (OVCAR-3) was 110.15%, the Activity (SK-MEL-28) was 125.12% and the Activity (UO-31) was 91.78%. It also gave an Activity (NCI-H460) of 106.8%, an Activity (TK-10) of 133.23% and an Activity (SN12C) of 107.17%. The Activity (NCI/ADR-RES) was 90.03%, the Activity (A549) was 105.33% and the Activity (NCI-H522) was 99.72%. For the same compound, the Activity (KM12) was 110.94%, the Activity (SK-MEL-5) was 104.4% and the Activity (BT-549) was 112.82%.
